Converted amounts (≈) assume the structure as drawn.
How the values were obtained:
Format in all cases: functional
Pseudomonas aeruginosa [1] = assay: Antimicrobial activity against Pseudomonas aeruginosa 1951-00
Pseudomonas aeruginosa [2] = assay: Antimicrobial activity against Pseudomonas aeruginosa 1752-00
Pseudomonas aeruginosa [3] = assay: Antimicrobial activity against Pseudomonas aeruginosa 1753-00
Pseudomonas aeruginosa [4] = assay: Antimicrobial activity against Pseudomonas aeruginosa 1957-00
Pseudomonas aeruginosa [5] = assay: Antimicrobial activity against Pseudomonas aeruginosa 1569-05
Pseudomonas aeruginosa [6] = assay: Antimicrobial activity against Pseudomonas aeruginosa 1570-05
Pseudomonas aeruginosa [7] = assay: Antimicrobial activity against Pseudomonas aeruginosa 1613-09
Pseudomonas aeruginosa [8] = assay: Antimicrobial activity against Pseudomonas aeruginosa 1954-00
Pseudomonas aeruginosa [9] = assay: Antimicrobial activity against Pseudomonas aeruginosa PA-4624
Pseudomonas aeruginosa [10] = assay: Antimicrobial activity against Pseudomonas aeruginosa 1565-05
Pseudomonas aeruginosa [11] = assay: Antimicrobial activity against Pseudomonas aeruginosa 1566-05
Pseudomonas aeruginosa [12] = assay: Antimicrobial activity against Pseudomonas aeruginosa 1567-05
Pseudomonas aeruginosa [13] = assay: Antimicrobial activity against Pseudomonas aeruginosa 1568-05
Pseudomonas aeruginosa [14] = assay: Antimicrobial activity against Pseudomonas aeruginosa 1767-00
Pseudomonas aeruginosa [15] = assay: Antimicrobial activity against Pseudomonas aeruginosa 1768-00
Pseudomonas aeruginosa [16] = assay: Antimicrobial activity against Pseudomonas aeruginosa 1956-00
Pseudomonas aeruginosa [17] = assay: Antimicrobial activity against Pseudomonas aeruginosa PA-75
Pseudomonas aeruginosa [18] = assay: Antimicrobial activity against Pseudomonas aeruginosa 1955-00
Pseudomonas aeruginosa [19] = assay: Antimicrobial activity against Pseudomonas aeruginosa 1561-05
Pseudomonas aeruginosa [20] = assay: Antimicrobial activity against Pseudomonas aeruginosa 1563-00
Pseudomonas aeruginosa [21] = assay: Antimicrobial activity against Pseudomonas aeruginosa 1564-05
Pseudomonas aeruginosa [22] = assay: Antimicrobial activity against Pseudomonas aeruginosa 1615-09
Pseudomonas aeruginosa [23] = assay: Antimicrobial activity against Pseudomonas aeruginosa 1761-00
Pseudomonas aeruginosa [24] = assay: Antimicrobial activity against Pseudomonas aeruginosa 1764-00
Pseudomonas aeruginosa [25] = assay: Antimicrobial activity against Pseudomonas aeruginosa 1765-00
Pseudomonas aeruginosa [26] = assay: Antimicrobial activity against Pseudomonas aeruginosa 1766-00
Pseudomonas aeruginosa [27] = assay: Antimicrobial activity against Pseudomonas aeruginosa 1952-00
Pseudomonas aeruginosa [28] = assay: Antimicrobial activity against Pseudomonas aeruginosa 1953-00
Pseudomonas aeruginosa [29] = assay: Antimicrobial activity against Pseudomonas aeruginosa 1562-05
Pseudomonas aeruginosa [30] = assay: Antimicrobial activity against Pseudomonas aeruginosa 1611-09
Pseudomonas aeruginosa [31] = assay: Antimicrobial activity against Pseudomonas aeruginosa 1614-09
Pseudomonas aeruginosa [32] = assay: Antimicrobial activity against Pseudomonas aeruginosa 1619-08
Pseudomonas aeruginosa [33] = assay: Antimicrobial activity against Pseudomonas aeruginosa 1760-00
Pseudomonas aeruginosa [34] = assay: Antimicrobial activity against Pseudomonas aeruginosa PA-1757
Pseudomonas aeruginosa [35] = assay: Antimicrobial activity against Pseudomonas aeruginosa 1527-08
Pseudomonas aeruginosa [36] = assay: Antimicrobial activity against Pseudomonas aeruginosa PA-4991
Pseudomonas aeruginosa [37] = assay: Antimicrobial activity against Pseudomonas aeruginosa PA-4999
Pseudomonas aeruginosa [38] = assay: Antimicrobial activity against Pseudomonas aeruginosa 1612-09
Pseudomonas aeruginosa [39] = assay: Antimicrobial activity against Pseudomonas aeruginosa PA-4995
Pseudomonas aeruginosa [40] = assay: Antimicrobial activity against Pseudomonas aeruginosa 1513-08
Pseudomonas aeruginosa [41] = assay: Antimicrobial activity against Pseudomonas aeruginosa 1515-08
Pseudomonas aeruginosa [42] = assay: Antimicrobial activity against Pseudomonas aeruginosa PA-4990
Pseudomonas aeruginosa [43] = assay: Antimicrobial activity against Pseudomonas aeruginosa PA-4997
Pseudomonas aeruginosa [44] = assay: Antimicrobial activity against Pseudomonas aeruginosa 1523-08
Pseudomonas aeruginosa [45] = assay: Antimicrobial activity against Pseudomonas aeruginosa PA-4993
Pseudomonas aeruginosa [46] = assay: Antimicrobial activity against Pseudomonas aeruginosa 1509-08
Pseudomonas aeruginosa [47] = assay: Antimicrobial activity against Pseudomonas aeruginosa 1510-08
Pseudomonas aeruginosa [48] = assay: Antimicrobial activity against Pseudomonas aeruginosa 1512-08
Pseudomonas aeruginosa [49] = assay: Antimicrobial activity against Pseudomonas aeruginosa 1514-08
Pseudomonas aeruginosa [50] = assay: Antimicrobial activity against Pseudomonas aeruginosa 1521-08
Pseudomonas aeruginosa [51] = assay: Antimicrobial activity against Pseudomonas aeruginosa 1526-08

## CC1(C)[C@H](NC(=O)/C(=N\OCc2cc(=O)c(O)cn2O)c2csc(N)n2)C(=O)N1OS(=O)(=O)O
Pseudomonas aeruginosa [1]
  MIC90: 1 µg/mL (≈ 1.93 µM)
Pseudomonas aeruginosa [2]
  MIC90: 1 µg/mL (≈ 1.93 µM)
Pseudomonas aeruginosa [3]
  MIC90: 4 µg/mL (≈ 7.71 µM)
Pseudomonas aeruginosa [4]
  MIC90: 0.25 µg/mL (≈ 0.482 µM)
Pseudomonas aeruginosa [5]
  MIC90: 1 µg/mL (≈ 1.93 µM)
Pseudomonas aeruginosa [6]
  MIC90: 0.5 µg/mL (≈ 0.964 µM)
Pseudomonas aeruginosa [7]
  MIC90: 0.5 µg/mL (≈ 0.964 µM)
Pseudomonas aeruginosa [8]
  MIC90: 0.25 µg/mL (≈ 0.482 µM)
Pseudomonas aeruginosa [9]
  MIC90: 1 µg/mL (≈ 1.93 µM)
Pseudomonas aeruginosa [10]
  MIC90: 0.5 µg/mL (≈ 0.964 µM)
Pseudomonas aeruginosa [11]
  MIC90: 1 µg/mL (≈ 1.93 µM)
Pseudomonas aeruginosa [12]
  MIC90: 0.5 µg/mL (≈ 0.964 µM)
Pseudomonas aeruginosa [13]
  MIC90: 0.5 µg/mL (≈ 0.964 µM)
Pseudomonas aeruginosa [14]
  MIC90: 0.5 µg/mL (≈ 0.964 µM)
Pseudomonas aeruginosa [15]
  MIC90: 0.5 µg/mL (≈ 0.964 µM)
Pseudomonas aeruginosa [16]
  MIC90: 0.5 µg/mL (≈ 0.964 µM)
Pseudomonas aeruginosa [17]
  MIC90: 0.5 µg/mL (≈ 0.964 µM)
Pseudomonas aeruginosa [18]
  MIC90: 0.5 µg/mL (≈ 0.964 µM)
Pseudomonas aeruginosa [19]
  MIC90: 2 µg/mL (≈ 3.86 µM)
Pseudomonas aeruginosa [20]
  MIC90: 0.5 µg/mL (≈ 0.964 µM)
Pseudomonas aeruginosa [21]
  MIC90: 0.5 µg/mL (≈ 0.964 µM)
Pseudomonas aeruginosa [22]
  MIC90: 1 µg/mL (≈ 1.93 µM)
Pseudomonas aeruginosa [23]
  MIC90: 4 µg/mL (≈ 7.71 µM)
Pseudomonas aeruginosa [24]
  MIC90: 0.5 µg/mL (≈ 0.964 µM)
Pseudomonas aeruginosa [25]
  MIC90: 4 µg/mL (≈ 7.71 µM)
Pseudomonas aeruginosa [26]
  MIC90: 0.5 µg/mL (≈ 0.964 µM)
Pseudomonas aeruginosa [27]
  MIC90: 1 µg/mL (≈ 1.93 µM)
Pseudomonas aeruginosa [28]
  MIC90: 1 µg/mL (≈ 1.93 µM)
Pseudomonas aeruginosa [29]
  MIC90: 1 µg/mL (≈ 1.93 µM)
Pseudomonas aeruginosa [30]
  MIC90: 0.125 µg/mL (≈ 0.241 µM)
Pseudomonas aeruginosa [31]
  MIC90: 0.5 µg/mL (≈ 0.964 µM)
Pseudomonas aeruginosa [32]
  MIC90: 0.06 µg/mL (≈ 0.116 µM)
Pseudomonas aeruginosa [33]
  MIC90: 1 µg/mL (≈ 1.93 µM)
Pseudomonas aeruginosa [34]
  MIC90: 8 µg/mL (≈ 15.4 µM)
Pseudomonas aeruginosa [35]
  MIC90: 1 µg/mL (≈ 1.93 µM)
Pseudomonas aeruginosa [36]
  MIC90: 1 µg/mL (≈ 1.93 µM)
Pseudomonas aeruginosa [37]
  MIC90: 1 µg/mL (≈ 1.93 µM)
Pseudomonas aeruginosa [38]
  MIC90: 16 µg/mL (≈ 30.9 µM)
Pseudomonas aeruginosa [39]
  MIC90: 0.5 µg/mL (≈ 0.964 µM)
Pseudomonas aeruginosa [40]
  MIC90: 1 µg/mL (≈ 1.93 µM)
Pseudomonas aeruginosa [41]
  MIC90: 1 µg/mL (≈ 1.93 µM)
Pseudomonas aeruginosa [42]
  MIC90: 0.5 µg/mL (≈ 0.964 µM)
Pseudomonas aeruginosa [43]
  MIC90: 1 µg/mL (≈ 1.93 µM)
Pseudomonas aeruginosa [44]
  MIC90: 1 µg/mL (≈ 1.93 µM)
Pseudomonas aeruginosa [45]
  MIC90: 0.5 µg/mL (≈ 0.964 µM)
Pseudomonas aeruginosa [46]
  MIC90: 2 µg/mL (≈ 3.86 µM)
Pseudomonas aeruginosa [47]
  MIC90: 8 µg/mL (≈ 15.4 µM)
Pseudomonas aeruginosa [48]
  MIC90: 0.5 µg/mL (≈ 0.964 µM)
Pseudomonas aeruginosa [49]
  MIC90: 2 µg/mL (≈ 3.86 µM)
Pseudomonas aeruginosa [50]
  MIC90: 2 µg/mL (≈ 3.86 µM)
Pseudomonas aeruginosa [51]
  MIC90: 0.5 µg/mL (≈ 0.964 µM)

Source: ChEMBL document CHEMBL3217532, “New analyses of MIC90 data to aid antibacterial drug discovery” (2011)
